Measurements as given in patent publication EP4635500A1, “THERAPEUTIC AGENT FOR BACTERIAL INFECTION” (Sumitomo Pharma Co., Ltd., priority 2022, dated 2024).
≈ marks a conversion by molar mass, not a printed value. Like-named read-outs stand apart in the source and are kept apart here.

Tests used:
[1] = tested on: 53 CRE and CPE strains; test: MICrange, MIC50, MIC80, MIC90 for 53 bacterial isolates (Example 5, Table 5); type: cell-based; details: 53 bacterial isolates
[2] = tested on: Enterobacterales; test: MIC, broth microdilution, CDC/FDA Antibiotic Resistance Isolate Bank (Example 7, Tables 8, 11, 12); type: cell-based; details: for MIC: read-out: MIC

NCC[C@H](O)C(=O)N[C@@H]1C[C@H](N)[C@@H](O[C@H]2O[C@H](CN)[C@@H](O)[C@H](O)[C@H]2O)[C@H](O)[C@H]1O[C@H]1O[C@H](CO)[C@@H](O)[C@H](N)[C@H]1O [Amikacin, amikacin]
MIC50 ([1]; read-out: MIC50): 2 µg/mL (≈ 3.42 µM) | MIC80 ([1]; read-out: MIC80): 32 µg/mL (≈ 54.6 µM) | MIC90 ([1]; read-out: MIC90): > 64 µg/mL | MIC50 ([2]; 154 strains of Enterobacterales, read-out: MIC50): 4 µg/mL (≈ 6.83 µM) | MIC90 ([2]; 154 strains of Enterobacterales, read-out: MIC90): > 64 µg/mL | MIC ([2]; Citrobacter freundii, KUB No. 5654, AR Bank # 157): > 64 µg/mL | MIC ([2]; Enterobacter cloacae, Enterobacter cloacae KUB No. 5792, AR Bank #448): 16 µg/mL (≈ 27.3 µM) | MIC ([2]; Enterobacter cloacae, Enterobacter cloacae KUB No. 5807, AR Bank #501): 4 µg/mL (≈ 6.83 µM) | MIC ([2]; Enterobacter cloacae, Enterobacter cloacae KUB No. 5808, AR Bank #502): 2 µg/mL (≈ 3.42 µM) | MIC ([2]; Enterobacter cloacae, Enterobacter cloacae complex, KUB No. 5661, AR Bank # 164): 1 µg/mL (≈ 1.71 µM) | MIC ([2]; Enterobacter cloacae, Enterobacter cloacae group, KUB No. 5629, AR Bank # 132): 1 µg/mL (≈ 1.71 µM) | MIC ([2]; Enterobacter cloacae, KUB No. 5529, AR Bank# 32): 1 µg/mL (≈ 1.71 µM) | MIC ([2]; Enterobacter cloacae, KUB No. 5535, AR Bank# 38): > 64 µg/mL | MIC ([2]; Enterobacter cloacae, KUB No. 5547, AR Bank# 50): 1 µg/mL (≈ 1.71 µM) | MIC ([2]; Enterobacter cloacae, KUB No. 5550, AR Bank# 53): 64 µg/mL (≈ 109 µM) | MIC ([2]; Enterobacter cloacae, KUB No. 5557, AR Bank# 60): 1 µg/mL (≈ 1.71 µM) | MIC ([2]; Enterobacter cloacae, KUB No. 5562, AR Bank # 65): 1 µg/mL (≈ 1.71 µM) | MIC ([2]; Enterobacter cloacae, KUB No. 5569, AR Bank # 72): 1 µg/mL (≈ 1.71 µM) | MIC ([2]; Enterobacter cloacae, KUB No. 5570, AR Bank # 73): 0.25 µg/mL (≈ 0.427 µM) | MIC ([2]; Enterobacter cloacae, KUB No. 5590, AR Bank # 93): 2 µg/mL (≈ 3.42 µM) | MIC ([2]; Enterobacter cloacae, KUB No. 5660, AR Bank # 163): 4 µg/mL (≈ 6.83 µM) | MIC ([2]; Enterobacter cloacae, KUB No. 5761, AR Bank # 365): 16 µg/mL (≈ 27.3 µM) | MIC ([2]; Enterobacter cloacae, KUB No. 5762, AR Bank # 366): 4 µg/mL (≈ 6.83 µM) | MIC ([2]; Enterobacter cloacae, KUB No. 5763, AR Bank # 367): 1 µg/mL (≈ 1.71 µM) | MIC ([2]; Enterobacter cloacae, KUB No. 5778, AR Bank # 432): 2 µg/mL (≈ 3.42 µM) | MIC ([2]; Enterobacter cloaccae, KUB No. 5651, AR Bank # 154): 8 µg/mL (≈ 13.7 µM) | MIC ([2]; Enterobacter clooreae, KUB No. 5633, AR Bank # 136): 2 µg/mL (≈ 3.42 µM) | MIC ([2]; Escherichia coli, Escherichia coli KUB No. 5783, AR Bank #437): 2 µg/mL (≈ 3.42 µM) | MIC ([2]; Escherichia coli, Escherichia coli KUB No. 5794, AR Bank #450): 2 µg/mL (≈ 3.42 µM) | MIC ([2]; Escherichia coli, Escherichia coli KUB No. 5795, AR Bank #451): 8 µg/mL (≈ 13.7 µM) | MIC ([2]; Escherichia coli, Escherichia coli KUB No. 5796, AR Bank #452): 1 µg/mL (≈ 1.71 µM) | MIC ([2]; Escherichia coli, Escherichia coli KUB No. 5803, AR Bank #861): 1 µg/mL (≈ 1.71 µM) | MIC ([2]; Escherichia coli, KUB No. 5558, AR Bank # 61): 16 µg/mL (≈ 27.3 µM) | MIC ([2]; Escherichia coli, KUB No. 5564, AR Bank # 67): 2 µg/mL (≈ 3.42 µM) | MIC ([2]; Escherichia coli, KUB No. 5566, AR Bank # 69): 16 µg/mL (≈ 27.3 µM) | MIC ([2]; Escherichia coli, KUB No. 5574, AR Bank # 77): 1 µg/mL (≈ 1.71 µM) | MIC ([2]; Escherichia coli, KUB No. 5578, AR Bank # 81): 2 µg/mL (≈ 3.42 µM) | MIC ([2]; Escherichia coli, KUB No. 5581, AR Bank # 84): 0.5 µg/mL (≈ 0.854 µM) | MIC ([2]; Escherichia coli, KUB No. 5582, AR Bank # 85): 1 µg/mL (≈ 1.71 µM) | MIC ([2]; Escherichia coli, KUB No. 5583, AR Bank # 86): 1 µg/mL (≈ 1.71 µM) | MIC ([2]; Escherichia coli, KUB No. 5586, AR Bank # 89): 1 µg/mL (≈ 1.71 µM) | MIC ([2]; Escherichia coli, KUB No. 5601, AR Bank # 104): 1 µg/mL (≈ 1.71 µM) | MIC ([2]; Escherichia coli, KUB No. 5611, AR Bank # 114): 1 µg/mL (≈ 1.71 µM) | MIC ([2]; Escherichia coli, KUB No. 5615, AR Bank # 118): > 64 µg/mL | MIC ([2]; Escherichia coli, KUB No. 5616, AR Bank # 119): > 64 µg/mL | MIC ([2]; Escherichia coli, KUB No. 5625, AR Bank # 128): > 64 µg/mL | MIC ([2]; Escherichia coli, KUB No. 5634, AR Bank # 137): 16 µg/mL (≈ 27.3 µM) | MIC ([2]; Escherichia coli, KUB No. 5646, AR Bank # 149): 2 µg/mL (≈ 3.42 µM) | MIC ([2]; Escherichia coli, KUB No. 5647, AR Bank # 150): 0.5 µg/mL (≈ 0.854 µM) | MIC ([2]; Escherichia coli, KUB No. 5648, AR Bank # 151): 1 µg/mL (≈ 1.71 µM) | MIC ([2]; Escherichia coli, KUB No. 5659, AR Bank # 162): 1 µg/mL (≈ 1.71 µM) | MIC ([2]; Escherichia coli, KUB No. 5764, AR Bank # 368): 2 µg/mL (≈ 3.42 µM) | MIC ([2]; Escherichia coli, KUB No. 5765, AR Bank # 369): 2 µg/mL (≈ 3.42 µM) | MIC ([2]; Escherichia coli, KUB No. 5766, AR Bank # 370): 4 µg/mL (≈ 6.83 µM) | MIC ([2]; Escherichia coli, KUB No. 5767, AR Bank # 371): 0.5 µg/mL (≈ 0.854 µM) | MIC ([2]; Escherichia coli, KUB No. 5768, AR Bank # 372): 2 µg/mL (≈ 3.42 µM) | MIC ([2]; Escherichia coli, KUB No. 5769, AR Bank # 373): 1 µg/mL (≈ 1.71 µM) | MIC ([2]; Escherichia coli, KUB No. 5770, AR Bank # 374): 1 µg/mL (≈ 1.71 µM) | MIC ([2]; Escherichia coli, KUB No. 5774, AR Bank # 378): 1 µg/mL (≈ 1.71 µM) | MIC ([2]; Escherichia coli, KUB No. 5779, AR Bank # 433): 0.5 µg/mL (≈ 0.854 µM) | MIC ([2]; Escherichia coli, KUB No. 5780, AR Bank # 434): 16 µg/mL (≈ 27.3 µM) | MIC ([2]; Escherichia coli, KUB No. 5781, AR Bank # 435): > 64 µg/mL | MIC ([2]; Escherichia, KUB No. 57, AR Bank # 436 (row cut off)): 1 µg/mL (≈ 1.71 µM) | MIC ([2]; Klebsiella aerogenes, Enterobacter aerogenes, KUB No. 5559, AR Bank # 62): 2 µg/mL (≈ 3.42 µM) | MIC ([2]; Klebsiella aerogenes, Enterobacter aerogenes, KUB No. 5571, AR Bank # 74): 2 µg/mL (≈ 3.42 µM) | MIC ([2]; Klebsiella aerogenes, Enterobacter aerogenes, KUB No. 5658, AR Bank # 161): 2 µg/mL (≈ 3.42 µM) | MIC ([2]; Klebsiella aerogenes, Enterobacter aerogenes, KUB No. 5777, AR Bank # 431): 0.5 µg/mL (≈ 0.854 µM) | MIC ([2]; Klebsiella oxytoca, KUB No. 5568, AR Bank # 71): 0.5 µg/mL (≈ 0.854 µM) | MIC ([2]; Klebsiella oxytoca, KUB No. 5644, AR Bank # 147): 0.5 µg/mL (≈ 0.854 µM) | MIC ([2]; Klebsiella oxytoca, KUB No. 5771, AR Bank # 375): 4 µg/mL (≈ 6.83 µM) | MIC ([2]; Klebsiella oxytoca, KUB No. 5776, AR Bank # 380): 1 µg/mL (≈ 1.71 µM) | MIC ([2]; Klebsiella ozaenae, KUB No. 5548, AR Bank# 51): > 64 µg/mL | MIC ([2]; Klebsiella ozaenae, KUB No. 5593, AR Bank # 96): 8 µg/mL (≈ 13.7 µM) | MIC ([2]; Klebsiella pnemnonine, KUB No. 5758, AR Bank # 362): 32 µg/mL (≈ 54.6 µM) | MIC ([2]; Klebsiella pneumoniae, KUB No. 55, AR Bank# 47): 32 µg/mL (≈ 54.6 µM) | MIC ([2]; Klebsiella pneumoniae, KUB No. 5531, AR Bank# 34): 1 µg/mL (≈ 1.71 µM) | MIC ([2]; Klebsiella pneumoniae, KUB No. 5536, AR Bank# 39): 4 µg/mL (≈ 6.83 µM) | MIC ([2]; Klebsiella pneumoniae, KUB No. 5537, AR Bank# 40): 32 µg/mL (≈ 54.6 µM)
